The values below come from US8536351B2, “2-aryl-5-heterocyclyl-cyclohexane-1,3,dione compounds and their use as herbicides” (Syngenta Crop Protection LLC, priority 2007, dated 2013).

Common to all, as to type: in vivo
The test system of test [1] is Setaria faberi (SETFA). Nature of the test: Post-emergence activity, glasshouse pot test (100=total damage to plant; 0=no damage to plant). Particulars: evaluated 14 or 15 days after spraying; for pest or weed control at 500 g/ha: rate 500 g/ha. On the procedure: (§1) Monocotyledonous and dicotyledonous test plants were sown in standard soil in pots. After cultivation for one day (pre-emergence) or after 10 days cultivation (post-emergence) under controlled conditions in a glasshouse, the plants were sprayed with an aqueous spray solution derived from the formulation of the technical active ingredient in 0.6 ml acetone and 45 ml formulation solution containing 10.6% Emulsogen EL (Registry number 61791-12-6), 42.2% N-methyl pyrrolidone, 42.2% dipropylene glycol monomethyl ether (Registry number 34590-94-8) and 0.2% X-77 (Registry number 11097-66-8). The test plants were then grown in a greenhouse under optimum conditions until, 14 or 15 days later for post-emergence and 19, 20 or 21 days for pre-emergence, the test was evaluated (100=total damage to plant; 0=no damage to plant). Alopecurus myosuroides (ALOMY), Avena fatua (AVEFA), Lolium perenne (LOLPE), Setaria faberi (SETFA), Digitaria sanguinalis (DIGSA), Echinochloa crus-galli (ECHCG) Post-Emergence Activity

The test system of test [2] is Digitaria sanguinalis (DIGSA). The description is as above. Particulars: evaluated 14 or 15 days after spraying; for pest or weed control at 500 g/ha: rate 500 g/ha. The procedure: as §1
Test [3] concerns Alopecurus myosuroides (ALOMY). Described as above. The conditions noted are these: 336 h, evaluated 14 or 15 days after spraying; for pest or weed control at 500 g/ha: rate 500 g/ha. The procedure:
as §1

In test [4] the test system is Lolium perenne (LOLPE). Described as above. The conditions noted are these: 336 h, evaluated 14 or 15 days after spraying; for pest or weed control at 500 g/ha: rate 500 g/ha. The procedure:
as §1

Test [5] concerns Echinochloa crus-galli (ECHCG). The description is as above. Particulars: evaluated 14 or 15 days after spraying; for pest or weed control at 500 g/ha: rate 500 g/ha. The procedure:
as §1

Test [6] deals with Avena fatua (AVEFA). The description is as above. The conditions noted are these: 336 h, evaluated 14 or 15 days after spraying; for pest or weed control at 500 g/ha: rate 500 g/ha. The procedure:
as §1

Test [7] has as its system Setaria faberi (SETFA). In words: Pre-emergence activity, glasshouse pot test (100=total damage to plant; 0=no damage to plant). The conditions noted are these: rate 500 g/ha, evaluated 19, 20 or 21 days after spraying. On the procedure:
as §1, with “Pre-Emergence” for “Post-Emergence”

Test [8] has as its system Digitaria sanguinalis (DIGSA). Described as above. The conditions noted are these: rate 500 g/ha, evaluated 19, 20 or 21 days after spraying. On the procedure: as §1, with “Pre-Emergence” for “Post-Emergence”
The test system of test [9] is Alopecurus myosuroides (ALOMY). The test is described as above. The conditions noted are these: rate 500 g/ha, evaluated 19, 20 or 21 days after spraying. The procedure: as §1, with “Pre-Emergence” for “Post-Emergence”
The test system of test [10] is Lolium perenne (LOLPE). Described as above. Particulars: rate 500 g/ha, evaluated 19, 20 or 21 days after spraying. On the procedure: as §1, with “Pre-Emergence” for “Post-Emergence”
Test [11] has as its system Echinochloa crus-galli (ECHCG). The description is as above. Particulars: rate 500 g/ha, evaluated 19, 20 or 21 days after spraying. The procedure: as §1, with “Pre-Emergence” for “Post-Emergence”
Test [12] deals with Avena fatua (AVEFA). The test is described as above. Particulars: rate 500 g/ha, evaluated 19, 20 or 21 days after spraying. On the procedure: as §1, with “Pre-Emergence” for “Post-Emergence”

The pest or weed control is the degree to which the test organism was suppressed or injured, in per cent. `CCc1cc(C)cc(CC)c1C1=C(O)CC(C2CCOC2)CC1=O` (stereo not drawn) [Compound T4, 2-(2,6-diethyl-4-methylphenyl)-5-(tetrahydrofuran-3-yl)cyclohexane-1,3-dione]: the pest or weed control at 500 g/ha in test [1] is 100%; in test [2], 100%; in test [3], 100%; in test [4] it was 100%; in [5], 80%; in test [6], 100%. Further, the pest or weed control at 500 g/ha is 100% in test [7]; 90% in [8]; 100% in [9]; 100% in test [10]; 100% in test [11]; 70% in test [12].
In the case of `Cc1ccc(-c2ccc(Cl)cc2)cc1C1=C(O)CC(C2CCOC2)CC1=O` (stereo not drawn) [Compound T7], the pest or weed control at 500 g/ha in [1] is 100%; in test [2], 100%; in test [3], 90%; in [4], 80%; in test [5], 100%; in test [6], 90%. Also, the pest or weed control at 500 g/ha in test [7] amounted to 100%; in [8] it was 100%; in [9] it was 70%; in [10] it was 100%; in test [11], 100%; in test [12], 30%.
As for `CCc1cc(C)cc(CC)c1C1=C(O)CC(C2CCCSC2)CC1=O` (stereo not drawn) [Compound T13], the pest or weed control at 500 g/ha was 100% in test [1]; 90% in test [2]; 100% in test [3]; 100% in [4]; 90% in test [5]; 100% in test [6]. Further, the pest or weed control at 500 g/ha amounted to 100% in test [7]; 100% in [8]; 90% in test [9]; 100% in [10]; 100% in [11]; 80% in test [12].
Regarding `CCc1cc(C)cc(CC)c1C1=C(O)CC(C2CCC[S+]([O-])C2)CC1=O` (stereo not drawn) [Compound T23], the pest or weed control at 125 g/ha in test [1] (rate 125 g/ha) was 50%; in [2] (rate 125 g/ha), 70%; in test [3] (rate 125 g/ha), 90%; in test [4] (rate 125 g/ha) it was 90%; in test [5] (rate 125 g/ha), 80%; in test [6] (rate 125 g/ha), 90%. Besides, the pest or weed control at 500 g/ha is 70% in [7]; 100% in test [8]; 100% in test [9]; 100% in test [10]; 50% in test [11]; 100% in [12].
On to `Cc1cc(C)c(C2=C(O)CC(C3CCOCC3)CC2=O)c(C)c1` (stereo not drawn) [Compound T3], for which the pest or weed control at 500 g/ha in test [1] came to 90%; in [2], 80%; in test [3] it was 100%; in test [4] it was 100%; in test [5] it was 100%; in test [6] it was 90%. For the same molecule, the pest or weed control at 500 g/ha in test [7] came to 60%; in [8], 100%; in [9] it was 90%; in [10], 100%; in test [11], 100%; in test [12], 90%.
Regarding `Cc1cc(C)c(C2=C(O)CC(C3CCS(=O)(=O)CC3)CC2=O)c(C)c1` (stereo not drawn) [Compound T17], the pest or weed control at 500 g/ha amounted to 90% in test [1]; 90% in test [2]; 20% in test [3]; 0% in [4]; 90% in test [5]; 20% in test [6]. Besides, the pest or weed control at 500 g/ha in test [7] turned out to be 50%; in test [8], 60%; in [9] it was 20%; in test [10] it was 0%; in test [11], 60%; in test [12], 70%.
For the molecule `Cc1cc(C)c(C2=C(O)CC(C3CCOC3)CC2=O)c(C)c1` (stereo not drawn) [Compound T10], the pest or weed control at 500 g/ha in test [1] turned out to be 80%; in [2], 90%; in test [3], 80%; in [4] it was 80%; in test [5] it was 90%; in test [6] it was 60%. The pest or weed control at 500 g/ha in test [7] was found to be 70%; in test [8], 80%; in [9], 90%; in test [11], 80%; in test [12] it was 50%.
On to `CCc1cc(C)cc(CC)c1C1=C(O)CC(C2CCOCC2)CC1=O` (stereo not drawn) [Compound T2, 2-(2,6-diethyl-4-methylphenyl)-5-(tetrahydropyran-4-yl)cyclohexane-1,3-dione], for which the pest or weed control at 500 g/ha in test [1] turned out to be 90%; in test [2], 100%; in test [3], 90%; in test [4], 90%; in test [5], 100%; in [6], 100%. Besides, the pest or weed control at 500 g/ha in test [7] stood at 100%; in test [8] it was 100%; in [9] it was 100%; in test [10] it was 100%; in [11], 90%; in test [12] it was 100%.
Regarding `Cc1cc(C)c(C2=C(O)CC(C3CCSCC3)CC2=O)c(C)c1` (stereo not drawn) [Compound T15], the pest or weed control at 500 g/ha in [1] is 90%; in test [2] it was 80%; in test [3], 60%; in [4], 60%; in [5] it was 70%; in test [6], 20%. Further, the pest or weed control at 500 g/ha in test [7] was 90%; in test [8], 70%; in test [9] it was 60%; in test [10], 80%; in test [11], 20%; in [12], 60%.
As for `CCc1cc(C)cc(C)c1C1=C(O)CC(C2CCOCC2)CC1=O` (stereo not drawn) [Compound T12], the pest or weed control at 500 g/ha in test [1] came to 100%; in [2], 100%; in [3] it was 90%; in test [4] it was 90%; in [5], 100%; in [6], 90%. In addition, the pest or weed control at 500 g/ha worked out at 100% in [7]; 100% in test [8]; 90% in test [9]; 100% in test [10]; 100% in test [11]; 90% in test [12].
`CCc1cc(C)cc(CC)c1C1=C(O)CC(C2CC[S+]([O-])CC2)CC1=O` (stereo not drawn) [Compound T22]: the pest or weed control at 500 g/ha in [1] stood at 100%; in test [2] it was 100%; in test [3], 90%; in test [4], 80%; in test [5] it was 80%; in test [6], 90%. Also, the pest or weed control at 500 g/ha is 90% in [9], 90% in test [10], 70% in [11] and 90% in test [12].
